The term IC50 denotes the concentration that gives 50% inhibition.

Read-outs that look alike come from different tables or passages of the source.

Test [1] has as its target PI3Kδ (His-PIK3CD/PIK3R1, p110 delta/p85 alpha) (Homo sapiens (Human), UniProt O00329). Kind of test: PI3Kδ biochemical assay (HTRF/FRET probe). It counts as binding. Conditions: class symbol. How it is done: Phosphoinositide 3-kinase (PI3K) Biochemical Assay: A solution was prepared containing 0.2 nM Anti-HIS-Terbium (Cisbio, 64CUSTAZU), 40 nM designed-probe and 1.0 nM His-PIK3CD/PIK3R1 (p110 delta/p85 alpha) in FRET Buffer (20 mM HEPES, 10 mM MgCl2, 0.015% Brij-35, 4 mM DTT, 0.05 mg/mL BSA).
In general terms: TR-FRET usually uses a lanthanide donor and a delayed reading to cut background.

For test [2], the target named is PI3Kα (His-PIK3CA/PIK3R1, p110 alpha/p85 alpha) (Homo sapiens (Human), UniProt P42336). Kind of test: PI3Kα biochemical assay (HTRF/FRET probe). The format is binding. Conditions: class symbol. As to the method: Phosphoinositide 3-kinase α (PI3Kα) Biochemical Assay: A solution was prepared containing 0.2 nM Anti-HIS-Terbium (Cisbio, 64CUSTAZU), 3.7 nM designed-probe and 1.0 nM His-PIK3CA/PIK3R1 (p110 alpha/p85 alpha) in FRET Buffer (20 mM HEPES, 10 mM MgCl2, 0.015% Brij-35, 4 mM DTT, 0.05 mg/mL BSA).

The target in a further test is DNA-PK (Homo sapiens (Human), UniProt P78527). Kind of test: DNA-PK biochemical assay (Reaction Biology HotSpot kinase assay, 10 μM ATP). How it is done: DNA-PK Biochemical Assay Using Reaction Biology's HotSpot Kinase Assay Protocol:
Reagent: Base Reaction buffer; 20 mM Hepes (pH 7.5), 10 mM MgCl2, 1 mM EGTA, 0.01% Brij35, 0.02 mg/ml BSA, 0.1 mM Na3VO4, 2 mM DTT, 1% DMSO Required cofactors are added individually to each kinase reaction.
Reaction Procedure: 1. Prepare substrate in freshly prepared Reaction Buffer; 2. Deliver any required cofactors to the substrate solution above; 3. Deliver kinase into the substrate solution and gently mix; 4. Deliver compounds in 100% DMSO into the kinase reaction mixture by Acoustic technology (Echo550; nanoliter range), incubate for 20 min at room temperature; 5. Deliver 33P-ATP into the reaction mixture to initiate the reaction; 6. Incubate for 2 hours at room temperature; 7. Detect kinase activity by P81 filter-binding method.

In a further test the target is ATM (Homo sapiens (Human), UniProt Q13315). Kind of test: ATM biochemical assay (Reaction Biology HTRF kinase assay, 10 μM ATP). How it is done: Ataxia-Telangiectasia Mutated (ATM) Biochemical Assay Using Reaction Biology's HTRF Kinase Assay Protocol:
The assay detects kinase activity by antibody based HTRF assay. The GST-tagged p53 protein serves as substrate and Eu-labeled-antibody with specific phosphorylation site binds upon phosphorylation which is monitored by HTRF from the anti-GST-d2.
Reagent: Reaction buffer; 50 mM Hepes (pH 7.5), 150 mM NaCl, 10 mM MnCl2, 1% Glycerol, 0.01% Brij35, 1 mM DTT, 1% DMSO.
Substrate: Human p53 (aa2-393), RBC produced in E. coli, N-terminal GST-Tag, MW=70.42 kDa.
Detection; MAb Anti-p53-pS15-Eu cryptate, CisBio cat #61P08KAZ; MAb Anti GST-d2
Reaction Procedure: 1. Deliver 2× Enzyme in wells of reaction plate except No E control wells. Add buffer instead; 2. Deliver compounds in 100% DMSO into the kinase reaction mixture by Acoustic technology (Echo550; nanoliter range), incubate for 30 min at room temperature; 3. Deliver 2× substrate+ATP mixture into the reaction mixture to initiate the reaction; 4. Incubate for 2 hours at room temperature.
HTRF Detection: 1. Deliver 2× Stop/Detection mixture and incubate for 2 hours to overnight in the dark. 2. HTRF measurement (Ex/Em1/Em2=320/615/665 nm) in EnVision.

The mark [3] stands for this setting: read-out: DNA-PK HotSpot 10 μM ATP IC50, class symbol.
Setting [4] is: read-out: ATM HTRF 10 μM ATP IC50, class symbol.

Sequence of PI3Kδ (His-PIK3CD/PIK3R1, p110 delta/p85 alpha) (O00329 whole entry, species assumed): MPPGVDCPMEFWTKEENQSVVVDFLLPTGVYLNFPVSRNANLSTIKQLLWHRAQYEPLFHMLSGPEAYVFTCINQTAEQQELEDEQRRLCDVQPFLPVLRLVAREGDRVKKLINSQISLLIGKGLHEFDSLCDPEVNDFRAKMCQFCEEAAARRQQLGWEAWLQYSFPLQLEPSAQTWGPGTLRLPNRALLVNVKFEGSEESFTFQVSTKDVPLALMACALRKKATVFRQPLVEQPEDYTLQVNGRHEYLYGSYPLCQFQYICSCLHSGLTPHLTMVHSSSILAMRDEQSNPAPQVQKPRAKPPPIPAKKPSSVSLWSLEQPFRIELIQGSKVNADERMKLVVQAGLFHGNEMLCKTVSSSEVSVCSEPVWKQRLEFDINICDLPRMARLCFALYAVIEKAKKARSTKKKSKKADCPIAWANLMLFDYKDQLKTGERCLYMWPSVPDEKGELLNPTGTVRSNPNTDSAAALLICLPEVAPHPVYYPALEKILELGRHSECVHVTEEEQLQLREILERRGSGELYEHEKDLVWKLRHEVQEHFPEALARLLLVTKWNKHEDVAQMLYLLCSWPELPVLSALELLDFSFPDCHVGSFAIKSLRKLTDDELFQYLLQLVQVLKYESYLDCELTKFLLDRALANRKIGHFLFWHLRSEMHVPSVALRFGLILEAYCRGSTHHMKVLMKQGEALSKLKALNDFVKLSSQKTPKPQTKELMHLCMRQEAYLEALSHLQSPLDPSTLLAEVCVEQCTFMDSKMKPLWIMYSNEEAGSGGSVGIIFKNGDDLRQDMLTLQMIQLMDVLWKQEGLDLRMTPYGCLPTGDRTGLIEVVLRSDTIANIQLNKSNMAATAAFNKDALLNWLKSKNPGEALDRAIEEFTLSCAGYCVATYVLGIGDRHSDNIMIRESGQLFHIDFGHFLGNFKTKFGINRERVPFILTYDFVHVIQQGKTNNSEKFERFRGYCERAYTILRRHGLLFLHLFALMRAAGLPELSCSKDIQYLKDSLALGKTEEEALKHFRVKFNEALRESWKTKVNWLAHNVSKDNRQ
Sequence of PI3Kδ (His-PIK3CD/PIK3R1, p110 delta/p85 alpha) (P27986 whole entry partner, species assumed): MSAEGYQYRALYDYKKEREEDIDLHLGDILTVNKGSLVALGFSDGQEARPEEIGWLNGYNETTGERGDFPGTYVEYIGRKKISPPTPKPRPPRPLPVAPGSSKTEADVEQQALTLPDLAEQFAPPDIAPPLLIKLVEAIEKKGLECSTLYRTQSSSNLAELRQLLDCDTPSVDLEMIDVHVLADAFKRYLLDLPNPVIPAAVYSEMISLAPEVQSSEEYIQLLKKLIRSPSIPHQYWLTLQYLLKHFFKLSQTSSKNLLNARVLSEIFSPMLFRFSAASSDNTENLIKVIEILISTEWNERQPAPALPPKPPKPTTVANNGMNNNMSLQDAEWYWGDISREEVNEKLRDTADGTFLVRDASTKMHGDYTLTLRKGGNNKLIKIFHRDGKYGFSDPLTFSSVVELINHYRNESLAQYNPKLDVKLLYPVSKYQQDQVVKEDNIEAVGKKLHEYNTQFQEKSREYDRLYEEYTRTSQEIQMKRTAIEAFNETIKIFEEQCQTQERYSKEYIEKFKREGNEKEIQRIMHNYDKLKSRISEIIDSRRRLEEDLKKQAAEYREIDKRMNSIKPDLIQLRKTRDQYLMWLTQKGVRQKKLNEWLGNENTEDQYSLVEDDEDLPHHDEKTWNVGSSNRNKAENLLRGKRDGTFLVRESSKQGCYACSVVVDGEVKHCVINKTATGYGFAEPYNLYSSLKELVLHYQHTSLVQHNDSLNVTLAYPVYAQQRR
Sequence of PI3Kα (His-PIK3CA/PIK3R1, p110 alpha/p85 alpha) (P42336 whole entry, species assumed): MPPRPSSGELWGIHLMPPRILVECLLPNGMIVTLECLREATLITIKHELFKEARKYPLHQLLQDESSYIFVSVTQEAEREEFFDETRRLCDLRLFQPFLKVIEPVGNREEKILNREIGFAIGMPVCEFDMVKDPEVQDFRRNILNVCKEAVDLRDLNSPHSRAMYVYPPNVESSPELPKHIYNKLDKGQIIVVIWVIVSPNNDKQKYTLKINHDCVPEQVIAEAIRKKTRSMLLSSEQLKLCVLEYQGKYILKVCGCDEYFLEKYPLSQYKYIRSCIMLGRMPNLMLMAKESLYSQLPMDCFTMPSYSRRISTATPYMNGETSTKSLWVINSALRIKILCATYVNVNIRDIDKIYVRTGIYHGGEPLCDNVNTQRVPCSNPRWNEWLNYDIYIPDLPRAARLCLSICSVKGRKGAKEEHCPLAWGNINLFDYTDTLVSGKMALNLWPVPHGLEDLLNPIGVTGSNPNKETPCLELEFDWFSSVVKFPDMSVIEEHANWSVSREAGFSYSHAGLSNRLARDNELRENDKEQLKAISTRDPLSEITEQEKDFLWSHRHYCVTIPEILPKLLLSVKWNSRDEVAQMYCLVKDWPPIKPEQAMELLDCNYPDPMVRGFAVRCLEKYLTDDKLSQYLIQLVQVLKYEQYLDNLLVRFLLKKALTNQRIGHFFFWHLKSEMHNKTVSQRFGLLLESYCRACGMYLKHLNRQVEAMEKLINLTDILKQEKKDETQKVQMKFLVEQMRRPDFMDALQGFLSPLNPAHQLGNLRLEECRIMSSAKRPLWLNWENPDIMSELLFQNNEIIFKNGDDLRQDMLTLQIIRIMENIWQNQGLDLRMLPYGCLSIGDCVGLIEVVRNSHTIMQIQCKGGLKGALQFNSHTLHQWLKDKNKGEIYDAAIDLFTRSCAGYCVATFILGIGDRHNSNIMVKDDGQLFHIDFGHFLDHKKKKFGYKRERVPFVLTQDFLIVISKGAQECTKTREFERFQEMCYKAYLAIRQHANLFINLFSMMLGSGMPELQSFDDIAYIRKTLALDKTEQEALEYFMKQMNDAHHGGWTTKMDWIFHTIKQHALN
Sequence of PI3Kα (His-PIK3CA/PIK3R1, p110 alpha/p85 alpha) (P27986 whole entry partner, species assumed): as the sequence (P27986 whole entry partner, species assumed) above

For `Cc1cc2nnccc2cc1Nc1ncc2c(n1)N(C13CCC(O)(CC1)C3)CC(=O)N2C` [Compound 61, 8-(4-hydroxybicyclo[2.2.1]heptan-1-yl)-5-methyl-2-((7-methylcinnolin-6-yl)amino)-7,8-dihydropteridin-6(5H)-one], the 50% inhibitory concentration (IC50) in test [1] is 100 to 1000 nM; in test [2], 10 to 100 nM; at DNA-PK (setting [3]), less than 1 nM; against ATM (class symbol) it was 1 to 10 nM.

As to `COC12CCC(n3c(=O)n(C)c4cnc(Nc5cc6nccnc6cc5C)nc43)(CC1)C2` [Compound 9, 9-(4-methoxybicyclo[2.2.1]heptan-1-yl)-7-methyl-2-((7-methylquinoxalin-6-yl)amino)-7,9-dihydro-8H-purin-8-one], the IC50 was 100 to 1000 nM in test [1], 10 to 100 nM in test [2], less than 1 nM at DNA-PK (setting [3]) and 10 to 100 nM against ATM (class symbol).

On to `Cc1cc2ncnn2cc1Nc1ncc2c(n1)N(C13CCC(O)(CC1)C3)CC(=O)N2C` [Compound 51, 8-{4-Hydroxybicyclo[2.2.1]heptan-1-yl}-5-methyl-2-({7-methyl-[1,2,4]triazolo[1,5-a]pyridin-6-yl}amino)-5,6,7,8-tetrahydropteridin-6-one], for which the IC50 was in the range of 100 to 1000 nM in test [1], 100 to 1000 nM in test [2], 1 to 10 nM against DNA-PK (class symbol) and 100 to 1000 nM at ATM (class symbol).

Take `Cc1cc2ncnn2cc1Nc1ncc2c(n1)N(C13CCC(O)(CC1)C3)C(=O)C21CC1` [Compound 66, 7′-(4-hydroxybicyclo[2.2.1]heptan-1-yl)-2′-((7-methyl-[1,2,4]triazolo[1,5-a]pyridin-6-yl)amino)spiro[cyclopropane-1,5′-pyrrolo[2,3-d]pyrimidin]-6′(7′H)-one]: the IC50 in test [1] is 100 to 1000 nM; in test [2], 10 to 100 nM; on DNA-PK (setting [3]) it was less than 1 nM; against ATM (class symbol), 100 to 1000 nM.

As to `COC12CCC(n3c(=O)n(C)c4cnc(Nc5cn6ncnc6cc5C)nc43)(C1)C2` [Compound 29, 9-(4-methoxybicyclo[2.1.1]hexan-1-yl)-7-methyl-2-((7-methyl-[1,2,4]triazolo[1,5-a]pyridin-6-yl)amino)-7,9-dihydro-8H-purin-8-one], the IC50 was not below 1000 nM in test [1], not below 1000 nM in test [2], 1 to 10 nM at DNA-PK (class symbol) and 100 to 1000 nM against ATM (class symbol).

With `Cc1cc2c(cc1Nc1ncc3c(n1)N(C14CCC(O)(CC1)C4)C(=O)C31CC1)OCO2` [Compound 68, 7′-(4-hydroxybicyclo[2.2.1]heptan-1-yl)-2′-((6-methylbenzo[d][1,3]dioxol-5-yl)amino)spiro[cyclopropane-1,5′-pyrrolo[2,3-d]pyrimidin]-6′(7′H)-one], the 50% inhibitory concentration (IC50) was 100 to 1000 nM in test [1], 100 to 1000 nM in test [2], less than 1 nM at DNA-PK (setting [3]) and not below 1000 nM at ATM (setting [4]).

Consider `Cc1cc2c(cc1Nc1ncc3c(n1)n(C14CCC(O)(CC1)CC4)c(=O)n3C)OCO2` [Compound 27, 9-(4-hydroxybicyclo[2.2.2]octan-1-yl)-7-methyl-2-((6-methylbenzo[d][1,3]dioxol-5-yl)amino)-7,9-dihydro-8H-purin-8-one], for which the IC50 is not below 1000 nM in test [1], 10 to 100 nM in test [2], less than 1 nM on DNA-PK (setting [3]) and 10 to 100 nM against ATM (class symbol).

For `Cc1cc2c(cc1Nc1ncc3c(n1)n(C14CC(CC#N)(C1)C4)c(=O)n3C)OCO2` [Compound 23, 2-(3-(7-methyl-2-((6-methylbenzo[d][1,3]dioxol-5-yl)amino)-8-oxo-7,8-dihydro-9H-purin-9-yl)bicyclo[1.1.1]pentan-1-yl)acetonitrile], the IC50 was not below 1000 nM in test [1], 100 to 1000 nM in test [2], 1 to 10 nM at DNA-PK (class symbol) and 10 to 100 nM against ATM (class symbol).

For `COC12CCC(n3c(=O)n(C)c4cnc(Nc5cc6nsnc6cc5C)nc43)(C1)C2` [Compound 30, 9-(4-methoxybicyclo[2.1.1]hexan-1-yl)-7-methyl-2-((6-methylbenzo[c][1,2,5]thiadiazol-5-yl)amino)-7,9-dihydro-8H-purin-8-one], the IC50 in test [1] is not below 1000 nM; in test [2], 100 to 1000 nM; on DNA-PK (setting [3]), less than 1 nM; on ATM (class symbol), 100 to 1000 nM.

With `Cc1cc2ncnn2cc1Nc1ncc2c(n1)N(C13CC(F)(C1)C3)C(=O)C21CC1` [Compound 70, 7′-(3-fluorobicyclo[1.1.1]pentan-1-yl)-2′-((7-methyl-[1,2,4]triazolo[1,5-a]pyridin-6-yl)amino)spiro[cyclopropane-1,5′-pyrrolo[2,3-d]pyrimidin]-6′(7′H)-one], the IC50 in test [1] is not below 1000 nM; in test [2] it was not below 1000 nM; on DNA-PK (setting [3]), less than 1 nM; against ATM (class symbol) it was 100 to 1000 nM.

Regarding `Cc1cc2nsnc2cc1Nc1ncc2c(C)nn(C34CC(C3)C4)c2n1` [Compound 50, N-(1-(bicyclo[1.1.1]pentan-1-yl)-3-methyl-1H-pyrazolo[3,4-d]pyrimidin-6-yl)-6-methylbenzo[c][1,2,5]thiadiazol-5-amine], the IC50 in test [1] is not below 1000 nM; in test [2] it was not below 1000 nM; at DNA-PK (setting [3]) it was less than 1 nM; at ATM (class symbol), 10 to 100 nM.

For `Cc1cc2ncnn2cc1Nc1ncc2c(C)nn(C34CC(C3)C4)c2n1` [Compound 47, 1-(bicyclo[1.1.1]pentan-1-yl)-3-methyl-N-(7-methyl-[1,2,4]triazolo[1,5-a]pyridin-6-yl)-1H-pyrazolo[3,4-d]pyrimidin-6-amine], the IC50 in test [1] was not below 1000 nM; in test [2], not below 1000 nM; at DNA-PK (class symbol), 1 to 10 nM; against ATM (class symbol), 100 to 1000 nM.

Take `Cc1cc2ncnn2cc1Nc1ncc2c(n1)n(C13CC(CC#N)(C1)C3)c(=O)n2C` [Compound 22, 2-(3-(7-methyl-2-((7-methyl-[1,2,4]triazolo[1,5-a]pyridin-6-yl)amino)-8-oxo-7,8-dihydro-9H-purin-9-yl)bicyclo[1.1.1]pentan-1-yl)acetonitrile]: the IC50 is not below 1000 nM in test [1], 100 to 1000 nM in test [2], 1 to 10 nM at DNA-PK (class symbol) and 1 to 10 nM against ATM (class symbol).

In the case of `COC12CCC(N3CC(=O)N(C)c4cnc(Nc5cc6nsnc6cc5C)nc43)(CC1)C2` [Compound 64, 8-(4-methoxybicyclo[2.2.1]heptan-1-yl)-5-methyl-2-((6-methylbenzo[c][1,2,5]thiadiazol-5-yl)amino)-7,8-dihydropteridin-6(5H)-one], the IC50 was 100 to 1000 nM in test [1], 10 to 100 nM in test [2], less than 1 nM at DNA-PK (setting [3]) and 1 to 10 nM against ATM (class symbol).

As to `Cc1cc2ncccc2cc1Nc1ncc2c(n1)N(C13CC(F)(C1)C3)CC(=O)N2C` [Compound 57, 8-(3-fluorobicyclo[1.1.1]pentan-1-yl)-5-methyl-2-((7-methylquinolin-6-yl)amino)-7,8-dihydropteridin-6(5H)-one], the IC50 in test [1] was 100 to 1000 nM; in test [2], 100 to 1000 nM; against DNA-PK (class symbol) it was 1 to 10 nM; on ATM (class symbol), 10 to 100 nM.

Regarding `Cc1cc(-c2cnco2)c(F)cc1Nc1ncc2c(n1)n(C13CCC(O)(CC1)C3)c(=O)n2C` [Compound 36, 2-((5-fluoro-2-methyl-4-(oxazol-5-yl)phenyl)amino)-9-(4-hydroxybicyclo[2.2.1]heptan-1-yl)-7-methyl-7,9-dihydro-8H-purin-8-one], the IC50 in test [1] was not below 1000 nM; in test [2] it was 100 to 1000 nM; at DNA-PK (setting [3]), less than 1 nM; on ATM (setting [4]) it was less than 1 nM.

For the compound `Cc1cc2c(cc1Nc1ncc3c(n1)n(C14CC(C(F)(F)F)(C1)C4)c(=O)n3C)OCO2` [Compound 19, 7-methyl-2-((6-methylbenzo[d][1,3]dioxol-5-yl)amino)-9-(3-(trifluoromethyl)bicyclo[1.1.1]pentan-1-yl)-7,9-dihydro-8H-purin-8-one], the IC50 in test [1] is not below 1000 nM; in test [2], not below 1000 nM; at DNA-PK (class symbol), 1 to 10 nM; on ATM (class symbol), 100 to 1000 nM.

Values taken from patent US20250263753A1, “BRIDGED CYCLE-BASED INHIBITORS OF DNA-DEPENDENT PROTEIN KINASE AND COMPOSITIONS AND APPLICATION IN GENE EDITING” (Juno Therapeutics, Inc., priority 2023, published 2025).
